Source: patent publication US10414732B2, “Polymorphic compounds and uses thereof” (priority 2017, dated 2019)
Values after ≈ are worked out from the molar mass of the structure shown. Like-named read-outs stand apart in the source and are kept apart here.

Experiments:
Format in all cases: physicochemical
[1] = Aqueous solubility determination via HPLC calibration curve
Procedure: The solubility determination was made as follows. Each salt suspension was made by adding 50-100 mg of material into a minimum amount of water (0.1-0.2 mL to start). Based on solubility, additional material was added to obtain a salt suspension. The suspension was then filtered through a 0.25 μm filter and the filtrate was further diluted with water and the salt solution was analysed by HPLC. The concentration of the salt solution injected was calculated with the linear equation y=mx+c derived from the calibration curves, with Y referring to the HPLC response obtained for the salt solution injected.

[2] = Characterization of the resulting solid form (hygroscopicity)
[3] = Competitive slurries (cross-seeding) of free base Forms A and B, solids analysed by XRPD; conditions: for XRPD form after competitive slurry: Forms A and B equal amounts, 72 h
Procedure: This set of experiments was performed using various solvents and solvent combinations. Cross-seeding experiments were performed over a range of temperatures to help define the relationship between Forms A and B.
Procedure: Twenty-one cross-seeding experiments were performed by adding equal amounts of Forms A and B (weight/weight, total of 25 mg). The mixture was slurried in the given solvent/system (ca. 5 vol. 125 μl) at room temperature, then matured at a specific temperature (5° C., 25° C. or 50° C.) for 72 h. The solids were filtered, air dried and analysed by XRPD. After two days, samples 3 and 15 were completely dry and additional portions of their corresponding solvents were added, (250 μl was added to sample 3 and 248.6 μl was added to sample 15). Solids obtained were characterised by XRPD.

[4] = water, thermodynamic from solid, aqueous (water), filtered suspension, HPLC, read-out: Solubility
[5] = aqueous (water), filtered suspension, HPLC

For `CC(C)(O)c1nc2ccc(Cl)cc2cc1N.CS(=O)(=O)O` [Compound 1], the solubility [1, 4] was greater than 1500 mg/mL, the “Aqueous solubility compared with the other compounds” value ([1]; water, comparison in words) was “highest solubility” and the Hygroscopicity ([2]; Form B) was “slightly hygroscopic”.
For `CC(C)(O)c1nc2ccc(Cl)cc2cc1N.O=S(=O)(O)c1ccccc1` [Compound 2], the Hygroscopicity ([2]; Form A) was “slightly hygroscopic”.
With `CC(C)(O)c1nc2ccc(Cl)cc2cc1N.O=S(=O)(O)O` [Compound 3] the solubility ([1]; thermodynamic from solid, aqueous (water), filtered suspension, HPLC, read-out: Solubility) was 421 mg/mL and the Hygroscopicity ([2]; Form A) was “slightly hygroscopic”.
Work on `CC(C)(O)c1nc2ccc(Cl)cc2cc1N.Cc1ccc(S(=O)(=O)O)cc1` [Compound 4] yielded a solubility [1, 4] of 11 mg/mL.
In the case of `CC(C)(O)c1nc2ccc(Cl)cc2cc1N` [Compound 5], the solubility [1, 5] is reported as 73 mg/mL (≈ 308 mM) and the Hygroscopicity ([2]; Form A) is reported as “slightly hygroscopic”.
With `CC(C)(O)c1nc2ccc(Cl)cc2cc1N.O=C(O)C(=O)O` [Compound 6] the solubility ([1]; water, thermodynamic from solid, Solubility) was 15.6 mg/mL.
In the case of `CC(C)(O)c1nc2ccc(Cl)cc2cc1N.O=P(O)(O)O` [Compound 7], the solubility [1, 4] is reported as greater than 500 mg/mL and the Hygroscopicity ([2]; Form A) is reported as “slightly hygroscopic”.
`CC(C)(O)c1nc2ccc(Cl)cc2cc1N` [Compound 8] showed a solubility [1, 5] of 35 mg/mL (≈ 148 mM).
With `CC(C)(O)c1nc2ccc(Cl)cc2cc1N` [Compound A] the solubility [1, 5] was less than 0.1 mg/mL, the “Transition temperature between Form A and Form B” value [3] was “below 50 °C” and the “XRPD form after competitive slurry” value ([3]; Acetone:H2O (10%), 5° C.) was “Form B”. The “XRPD form after competitive slurry” value ([3]; Acetone:H2O (10%), 25° C.) was “Form B”, the “XRPD form after competitive slurry” value ([3]; Acetone:H2O (10%), 50° C.) was “Forms A & B” and the “XRPD form after competitive slurry” value ([3]; Cyclohexane, 5° C.) was “Forms A & B”. For the same compound, the “XRPD form after competitive slurry” value ([3]; Cyclohexane, 25° C.) was “Form B”, the “XRPD form after competitive slurry” value ([3]; Cyclohexane, 50° C.) was “Form B” and the “XRPD form after competitive slurry” value ([3]; EtOAc:Heptane, 5° C.) was “Form B”. For the same compound, the “XRPD form after competitive slurry” value ([3]; EtOAc:Heptane, 25° C.) was “Form B”, the “XRPD form after competitive slurry” value ([3]; EtOAc:Heptane, 50° C.) was “Form B” and the “XRPD form after competitive slurry” value ([3]; Heptane, 5° C.) was “Form B”. For the same compound, the “XRPD form after competitive slurry” value ([3]; Heptane, 25° C.) was “Form B”, the “XRPD form after competitive slurry” value ([3]; Heptane, 50° C., additional solvent added) was “Form B” and the “XRPD form after competitive slurry” value ([3]; Toluene, 5° C.) was “Form B”. For the same compound, the “XRPD form after competitive slurry” value ([3]; Toluene, 25° C.) was “Form B”, the “XRPD form after competitive slurry” value ([3]; Toluene, 50° C.) was “Form A” and the “XRPD form after competitive slurry” value ([3]; Toluene:Cyclohexane, 5° C.) was “Form B”. The “XRPD form after competitive slurry” value ([3]; Toluene:Cyclohexane, 25° C.) was “Form B”, the “XRPD form after competitive slurry” value ([3]; Toluene:Cyclohexane, 50° C.) was “Form B” and the “XRPD form after competitive slurry” value ([3]; Toluene:Heptane, 5° C.) was “Form B”. For the same compound, the “XRPD form after competitive slurry” value ([3]; Toluene:Heptane, 25° C.) was “Form B”, the “XRPD form after competitive slurry” value ([3]; Toluene:Heptane, 50° C., additional solvent added) was “Form B” and the “Most stable form in competitive slurries” value ([3]; two anhydrous forms (Form A & Form B), under the investigated conditions) was “Form B”. The Hygroscopicity ([2]; Form A) was “non-hygroscopic” and the Hygroscopicity ([2]; Form B) was “slightly hygroscopic”.
